The results in this text go back to patent US20180356397A1, “MIMICRY OF NEUROINFLAMMATORY MICROENVIRONMENTS AND METHODS OF USE AND MANUFACTURING THEREOF” (priority 2017, published 2018).

Assay [1] deals with U87 glioma line. Nature of the assay: glioma migration/invasiveness in microfluidic device, alone or in co-culture with microglia. Type of assay: cell-based. As to conditions: glioma cells cultured alone. The source says:
Here, we reconstituted a microenvironment of boosted brain tumor invasion by inducing glioma migration by using EGF, a chemoattractant for glioma, and promoting the migration via the incorporation with microglia. We plated both glioma and microglia on the outer chamber and EGF in the central chamber, which are connected through migration channels (50×10×500 μm in width, height, and length) forming gradients of chemokines for glioma. We found PAI-1 is abundantly expressed on most glioma lines. Next, we culture the U87 glioma line, which has produced PAI-1, to investigate the hypothesis that glioma-secreted PAI-1 interacts with microglia to affect glioma migration. In co-culture with microglia in a microfluidic device, the invasiveness of PAI-1 expressing U87 cell lines was increased. […] This study has uncovered a mechanism by which glioma cells exploit microglia for increased invasiveness. Specifically, glioma-derived PAI-1 acts upon microglia, which then produces IL-6 to stimulate gliomas. The PAI-1/IL-6 loop is a potential therapeutic target for the currently incurable malignant gliomas.

The test system of assay [2] is neutrophils co-cultured with A-beta activated microglia. Nature of the assay: neutrophil recruitment toward soluble A-beta activated microglia (co-culture in microfluidic device). Particulars: microglia-derived chemokines by A-beta stimulation. The assay is classed as cell-based, human. From the text:
Microglial cells are resident brain immune cells and stimulated by soluble A-beta42, which is a signature of human AD neurotoxic peptide. Based on our previous observation of neutrophil accumulation on A-beta plaques in in vivo, we hypothesize that A-beta activated microglial cells has a critical role in recruiting neutrophil. Stimulated microglial cells can release various types of chemokines and/or cytokines to increase inflammatory behavior or to clear A-beta in inflamed region. Furthermore, those secreted chemokines and/or cytokines can recruit other cell types including peripheral immune cells (FIG. 9A). To modulate this whole process, we established an in vitro AD brain-blood model (ADBBM) using microglia and neutrophil to mimic the brain microenvironment. To accommodate the different cells separately in a single microfluidic platform, we employed mechanically separated two chambers, which are connected through neutrophil specific migration channels (10×5×500 μm in width, height, and length) forming gradients of chemokines and/or cytokines (FIG. 9B).
Compared to a parallel configuration having equal surface areas for cell loading and cell collection, the asymmetric configuration of the current microfluidic device 10 has a small central cell collecting compartment (central chamber 30), which is smaller than a large annular cell loading compartment (annular chamber 50) by a factor of 3, 4, 5, 6, 7, 8, 9, 10 or greater. […] This enhances the gradient formation and detection of recruitment. The long and thin migration channels 60 can block spontaneous entrance of inactivated neutrophil through mechanical constraints. Using this platform, we could culture microglial cells for extended periods to accumulate enough soluble factors and could observe neutrophil signature movement at single cell resolution, in real-time. Red membrane dye stained microglial cells plated first in central chamber 30 and incubated for 3 days with soluble A-beta to modulate chemokine/cytokine enriched AD microenvironment. Freshly isolated neutrophil labeled with green membrane dye plated on annular chamber 50 and incubated under microscope to observe their movement and accumulation in central chamber 30. Precise numbers of neutrophils are reproducibly loaded and uniformly distributed in annular chamber 50 and this design allows us to evaluate the response of neutrophil to various types of chemokines and/or cytokines. We tested 200 independent conditions at the same time, by using real time imaging of process in an array of twenty-five formatted on a single well plate 140 or an array of one-hundred nineteen formatted single well plate 140 (FIG. 7 and FIG. 8).
To validate the dependency of neutrophil migration toward soluble A-beta activated microglia, microglial cells plated on central chamber 30 with various cell numbers (5,000, 10,000, 20,000 cells). Microglial cells are pre-labeled with membrane dye according to manufacturer's protocol to observe their morphology change. After 24 hour incubation of microglia alone, prepared soluble A-beta (2.2 uM) with reduced 1% FBS Prigrowlll media were changed to incubate further for 48 hours. After 48 hours, freshly isolated neutrophil labeled with green membrane dye plated on annular chamber 50 and incubated on microscopic real time imaging chamber. Neutrophil (green) migration could be observed toward soluble A-beta activated microglia (red) cultured central chamber 30 after 6 hours (FIG. 11A). 2.4-, 1.2-times higher neutrophil migration could be observed in central chamber 30 in response to 10,000 and 20,000 cultured microglia in central chamber 30 by showing the dependency of neutrophil recruitment in cell numbers. […] By utilizing high-resolution and spatiotemporal controlled microscopic imaging method, we also can quantify the persistent movement of microglial cells in various stimulations. […]

Turning to “IL6: interleukin (IL)-6; microglia-derived cytokine, also used as recombinant protein”, the “invasiveness of glioma cells” value in assay [1] is reported as “enhanced the invasiveness”. In addition, in assay [2], the “recruiting of neutrophils in the recapitulated AD environment” value is “effective for recruiting neutrophils”.
